These results are taken from patent US11098257B2, “Bioderived fuels and methods of making the same” (Alliance for Sustainable Energy, LLC, priority 2019, dated 2021).

In general, solubility refers to the dissolved amount per volume that the medium holds. A high value points to much dissolved substance.

Common to all, as to type: physicochemical
Data set [1] can be described thus: Lower heating value from bomb calorimeter HHV (D240) and hydrogen content. The note with it: measured value. As for the experimental part: Heating Values. HHV was found using a bomb calorimeter to combust 15 mL of sample (D240), with LHV calculated using sample hydrogen content (D240, Section 10.5.1) measured using a LECO TruSpec CHN determinator. To find hydrogen content, samples were combusted in excess oxygen at 950° C. The amount of CO2 and H2O produced could then be quantified using IR and using an EDTA calibration standard the hydrogen wt % could be extracted.

A short description of another data set: Flash point measurement. The conditions noted are these: measured value. As for the experimental part: Flash point. D7094 was used to measure Tflash with an average error of ±1.3° C.
Data set [2] can be described thus: Water solubility, ether in aqueous layer by GC/MS. The note with it: thermodynamic from solid; purified ether, water saturated 1:5 by volume, left overnight. As for the experimental part: Water Solubility. […] The mixed samples were left overnight to separate and the amount of ether in the aqueous layer was determined by GC/MS.
A short description of data set [3]: Rapid small-scale oxidation test (RSSOT), PetroOxy induction time. The method, then:
The next important consideration is that of safety and fuel quality upon storage of the novel blendstock. Oxidation stability of 4-butoxyheptane was examined experimentally. Two distinct characterizations were performed regarding oxidation potential during storage. The first utilized a rapid small-scale oxidation test (RSSOT) using a PetroOxy instrument to determine induction time, which indicates the potential for a fuel to oxidize during storage, which may result in quality degradation from formation of low molecular weight acids and insoluble polymers.

A short description of data set [4]: Storage stability aging per ASTM D4625, GC-MS profile. The note with it: GC-MS profile after 6 weeks of aging (simulating 6 months). As for the experimental part:
Storage stability testing. Aging conditions to test storage stability of the target ether are based on the procedure of ASTM D4625 Standard Test Method for Middle Distillate Fuel Storage Stability. This method accelerates the oxidation rate of diesel fuel by approximately 4-fold, with one week under these conditions equivalent to approximately one month of storage at 21° C. It should be noted that this degree of acceleration has not been validated for ethers, but nonetheless provides a standard protocol for diesel range sample aging. Aging was conducted for 6 weeks (simulating 6 months) with measurement of peroxide concentration at 2-week intervals. Peroxide concentration was measured following AOCS method Cd 8b-90, modified for potentiometric end point detection and smaller sample size. A sample of isoamyl ether (>99%, non-stabilized, Sigma-Aldrich) was aged alongside the 4-butoxyheptane for comparison. Samples of 4-butoxyheptane before and after aging were analyzed by gas chromatography with mass spectrometry (GC-MS) in an attempt to identify components produced by oxidation (see Table 11 below). The ether samples were diluted volumetrically in acetone 1:10. Analysis was conducted with an Agilent 7890A GC coupled with an Agilent 5975C mass selective detector (MSD). […]

A short description of data set [5]: Boiling point (simulated distillation T90 D2887; blend by TGA). The note with it: measured value. An excerpt:
Boiling Point. Tboil of pure was estimated using T90 of a simulated distillation (D2887), with blend Tboil determined using thermogravimetric analysis (TGA).

Converted amounts (≈) assume the structure as drawn. A value given as a limit tells only on which side of the number the result lay.

Consider `CCCCOC(CCC)CCC` [4-butoxyheptane], for which the “Lower Heating Value” was found to be 39.2 mJ/kg in data set [1] and 39 mJ/kg in data set [1] (listed as drawing 5). The Flashpoint in the data set “Flash point measurement” came out at 64 °C. In data set [2], the concentration in solution (solubility) was 15 µg/mL (≈ 87.1 µM). In data set [3] (neat ether, no antioxidant), the induction period entry is listed as “about 23 minutes”. Besides, the “induction period with antioxidant” value in data set [3] (with 100 ppm butylated hydroxytoluene (BHT)) is > 60 min. For the same compound, in data set [4], the “% Total Area” value was 94.90%. Moreover, the “Boiling Point” value in data set [5] was 198 °C.

For the compound `CCCCCCOC(CCC)CCC` [4-hexoxyheptane], the “Lower Heating Value” in data set [1] was 43 mJ/kg. The Flashpoint in “Flash point measurement” was determined as 68 °C. Moreover, in data set [5], the “Boiling Point” value is 234 °C.

Take `CCCCCC(CCCCC)OCC` [6-ethoxyundecane]: the “Lower Heating Value” in data set [1] worked out at 42 mJ/kg. Moreover, the Flashpoint in “Flash point measurement” was found to be 83 °C. Besides, the “Boiling Point” value in data set [5] was 236 °C.
